Results on six compounds are retold here after PubChem BioAssay AID588566 (The Scripps Research Institute Molecular Screening Center, 2011).

What is called IC50 is the point on the concentration scale where inhibition reaches its midpoint.

For this assay, the target named is Neuropeptides B/W receptor type 1 (Homo sapiens) (UniProt P48145). Kind of assay: GPR7 antagonist potency, late-stage follow-up, cell-based, fluorescence, dose response, set 5 (AID 588566). The note with it: GPR7-expressing cells, fluorescence antagonist assay.
Neuropeptides B/W receptor type 1 (Homo sapiens), sequence (P48145 whole entry, looked up): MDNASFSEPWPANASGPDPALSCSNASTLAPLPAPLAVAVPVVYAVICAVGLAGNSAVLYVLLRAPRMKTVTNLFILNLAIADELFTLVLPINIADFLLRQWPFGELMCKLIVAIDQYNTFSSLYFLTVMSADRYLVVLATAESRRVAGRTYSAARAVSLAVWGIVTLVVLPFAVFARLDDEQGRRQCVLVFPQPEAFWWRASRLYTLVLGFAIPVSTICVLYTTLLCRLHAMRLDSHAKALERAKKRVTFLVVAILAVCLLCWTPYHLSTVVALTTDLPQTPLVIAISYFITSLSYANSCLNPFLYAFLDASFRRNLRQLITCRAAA

For `O=c1c(Oc2ccc3c(c2)CCC3)c(Cl)cnn1Cc1cccc2ccccc12`, the concentration for half-maximal inhibition (IC50) is 834 nM.
In the case of `COc1ccc(Oc2c(Cl)cnn(-c3nc4ccccc4c(=O)c4ccccc34)c2=O)cc1` it was 2210 nM; in that of `COc1cc(Oc2c(Cl)cnn(Cc3cccc4ccccc34)c2=O)cc(OC)c1OC`, 1790 nM.
Take `CCc1cccc(Oc2c(Cl)cnn(Cc3cccc4ccccc34)c2=O)c1`: the half-inhibitory concentration (IC50) was 8550 nM.
Take `COc1ccc(Oc2c(Cl)cnn(C3c4ccccc4Oc4ccccc43)c2=O)cc1`: the IC50 was 3110 nM.
With `COc1ccc(Oc2c(Cl)cnn(C3=Nc4cc(Cl)ccc4Oc4ncccc43)c2=O)cc1`, the IC50 was 527 nM.
